Laboratory results: ChEMBL document CHEMBL5608199, “Quaternized antimicrobial peptide mimics based on harmane as potent anti-MRSA agents by multi-target mechanism covering cell wall, cell membrane and intracellular targets” (Eur J Med Chem, 2024)
Converted amounts (≈) assume the structure as drawn. The source made the active and inactive calls. The rule behind the calls is not given here.

How the values were obtained:
Cell membrane [1] = assay: Disruption of membrane integrity in methicillin-resistant Staphylococcus aureus ATCC 33591 assessed as increase in nucleic acid leakage; assay type: cell membranes; details: dose 0-4 µg/ml
Staphylococcus aureus [2] = assay: Antibacterial activity against methicillin-resistant Staphylococcus aureus ATCC 43300 incubated for 18 hrs by two fold serial broth dilution method; assay type: functional
Staphylococcus aureus [3] = assay: Antibacterial activity against methicillin-resistant Staphylococcus aureus ATCC 33591 incubated for 18 hrs by two fold serial broth dilution method; assay type: functional
Escherichia coli = assay: Antibacterial activity against Escherichia coli ATCC 8739 incubated for 18 hrs by two fold serial broth dilution method; assay type: functional
Staphylococcus aureus [4] = assay: Induction of ROS generation in methicillin-resistant Staphylococcus aureus ATCC 33591 assessed as fold increase in ROS level at 0.5 ug/ml relative to control; assay type: functional; details: dose 0.5 µg/ml
Staphylococcus aureus [5] = assay: Antibacterial activity against methicillin-resistant Staphylococcus aureus ATCC 33591 assessed as inhibition of bacterial growth in presence of 0 to 128 ug/ml peptidoglycan by exogenous addition assay (reference value: 0.5 ug/ml); assay type: functional
Cell membrane [6] = assay: Induction of membrane depolarization in methicillin-resistant Staphylococcus aureus ATCC 33591 assessed as increase in fluorescence intensity at 1 to 4 times MIC measured after 0 to 120 mins by DiSC3(5) staining based assay; assay type: cell membranes; details: time 0-120 min
Staphylococcus aureus [7] = assay: Antibacterial activity against methicillin-resistant Staphylococcus aureus ATCC 33591 assessed as reduction in metabolic activity by alamar blue assay; assay type: functional, organism-based; details: dose 0-4 µg/ml
[8] = Cytotoxicity against human HTR-8/SVneo cells assessed as cell viability at 8 ug/ml by CCK-8 assay relative to control; assay type: toxicity, cell-based; details: at 8 µg/mL, read-out: Activity
Staphylococcus aureus [9] = assay: Antibacterial activity against methicillin-resistant Staphylococcus aureus clinical isolate M-17 incubated for 18 hrs by two fold serial broth dilution method; assay type: functional
Staphylococcus aureus [10] = assay: Induction of morphological changes in methicillin-resistant Staphylococcus aureus ATCC 33591 assessed as appearance of cracked cell morphology at 1 ug/ml measured after 6 hrs by SEM analysis; assay type: functional, organism-based; details: dose 1.0 µg/ml
Calf thymus DNA [11] = assay: Binding affinity to calf thymus DNA assessed as increase in absorption wavelength intensity at 0 to 2.4 x 10^-5M by absorption spectroscopy; assay type: nucleic-acid assay; details: Bos taurus; dose 0-2.4 10^-5M
[12] = Hemolytic activity at sheep Red blood cells at 256 ug/ml; assay type: toxicity, cell-based, Ovis aries, Erythrocyte; details: sheep red blood cells (erythrocytes), at 256 µg/mL, read-out: Activity
Staphylococcus aureus [13] = assay: Antibacterial activity against Staphylococcus aureus ATCC 29213 incubated for 18 hrs by two fold serial broth dilution method; assay type: functional
Staphylococcus aureus [14] = assay: Antibacterial activity against methicillin-resistant Staphylococcus aureus ATCC 33591 infected in cyclophosphamide treated female KM mouse skin infection model assessed as log reduction in bacterial load in abscess at 3.3 mg/kg administered for 4 days and measured on day 5; assay type: functional; details: time 5 day
Staphylococcus aureus [15] = assay: Induction of morphological changes in methicillin-resistant Staphylococcus aureus ATCC 33591 assessed as appearance of adhesive cell morphology at 1 ug/ml measured after 6 hrs by SEM analysis; assay type: functional, organism-based; details: dose 1.0 µg/ml
Staphylococcus aureus [16] = assay: Antibacterial activity against methicillin-resistant Staphylococcus aureus clinical isolate M-14 incubated for 18 hrs by two fold serial broth dilution method; assay type: functional
Staphylococcus aureus [17] = assay: Induction of oxidative damage in methicillin-resistant Staphylococcus aureus ATCC 33591 assessed as loss of GSH activity; assay type: functional, organism-based; details: dose 0-4 µg/ml
Staphylococcus aureus [18] = assay: Antibacterial activity against methicillin-resistant Staphylococcus aureus ATCC 33591 infected in cyclophosphamide treated female KM mouse skin infection model assessed as log reduction in bacterial load in abscess at 13.2 mg/kg administered for 4 days and measured on day 5; assay type: functional; details: time 5 day
[19] = Cytotoxicity against human HTR-8/SVneo cells assessed as cell viability at 0.5 ug/ml by CCK-8 assay relative to control; assay type: toxicity, cell-based; details: at 0.5 µg/mL, read-out: Activity
Staphylococcus aureus [20] = assay: Antibacterial activity against methicillin-resistant Staphylococcus aureus ATCC 33591 assessed as neutralization of negative charge in cell wall by measuring increase in surface potential; assay type: functional, organism-based; details: dose 0-256 µg/ml
Staphylococcus aureus [21] = assay: Antibacterial activity against methicillin-resistant Staphylococcus aureus clinical isolate M-19 incubated for 18 hrs by two fold serial broth dilution method; assay type: functional
Cell membrane [22] = assay: Disruption of membrane integrity in methicillin-resistant Staphylococcus aureus ATCC 33591 assessed as increase in protein leakage; assay type: cell membranes; details: dose 0-4 µg/ml
Cell membrane [23] = assay: Disruption of membrane integrity in methicillin-resistant Staphylococcus aureus ATCC 33591 assessed as increase in fluorescence intensity by PI staining based fluorescence assay; assay type: cell membranes; details: dose 0-4 µg/ml
Staphylococcus aureus [24] = assay: Induction of morphological changes in methicillin-resistant Staphylococcus aureus ATCC 33591 assessed as appearance of irregular cell morphology at 1 ug/ml measured after 6 hrs by SEM analysis; assay type: functional, organism-based; details: dose 1.0 µg/ml
Staphylococcus aureus [25] = assay: Bacteriostatic activity against methicillin-resistant Staphylococcus aureus ATCC 33591 assessed as log reduction in viable bacterial count at 1 to 4 times MIC measured at 10 hrs by time-kill assay; assay type: functional
Cell membrane [26] = assay: Disruption of membrane integrity in methicillin-resistant Staphylococcus aureus ATCC 33591 assessed as appearance of blue and green fluorescence at 1 ug/ml by DAPI/SYTOX Green double staining assay; assay type: cell membranes; details: dose 1.0 µg/ml
Staphylococcus aureus [27] = assay: Antibacterial activity against methicillin-resistant Staphylococcus aureus clinical isolate M-15 incubated for 18 hrs by two fold serial broth dilution method; assay type: functional
Staphylococcus aureus [28] = assay: Antibacterial activity against methicillin-resistant Staphylococcus aureus ATCC 33591 infected in cyclophosphamide treated female KM mouse skin infection model assessed as reduction in inflammatory cell infiltration at 3.3 to 13.2 mg/kg administered for 4 days and measured on day 5 by H and E staining based analysis; assay type: functional, organism-based; details: dose 3.3-13.2 mg/kg, time 5.0 day
Staphylococcus aureus [29] = assay: Antibacterial activity against methicillin-resistant Staphylococcus aureus clinical isolate M-16 incubated for 18 hrs by two fold serial broth dilution method; assay type: functional
Staphylococcus aureus [30] = assay: Induction of oxidative damage in methicillin-resistant Staphylococcus aureus ATCC 33591 assessed as reduction in SOD activity; assay type: functional, organism-based; details: dose 0-4 µg/ml
Staphylococcus aureus [31] = assay: Antibacterial activity against methicillin-resistant Staphylococcus aureus ATCC 33591 assessed as reduction in LDH activity; assay type: functional, organism-based; details: dose 0-4 µg/ml
Staphylococcus aureus [32] = assay: Antibacterial activity against methicillin-resistant Staphylococcus aureus ATCC 33591 infected in cyclophosphamide treated female KM mouse skin infection model assessed as reduction in number of bacterial clones in skin at 3.3 to 13.2 mg/kg administered for 4 days and measured on day 5; assay type: functional, organism-based; details: dose 3.3-13.2 mg/kg, time 5.0 day
Cell membrane [33] = assay: Disruption of membrane integrity in methicillin-resistant Staphylococcus aureus ATCC 33591 assessed as fold increase in nucleic acid leakage at 1 ug/ml relative to control; assay type: cell membranes; details: dose 1.0 µg/ml
Staphylococcus aureus [34] = assay: Antibacterial activity against methicillin-resistant Staphylococcus aureus ATCC 33591 assessed as inhibition of bacterial growth at 0.5 ug/ml measured after 8 hrs relative to control; assay type: functional
Staphylococcus aureus [35] = assay: Induction of ROS generation in methicillin-resistant Staphylococcus aureus ATCC 33591 assessed as increase in ROS level; assay type: functional, organism-based; details: dose 0-4 µg/ml
Calf thymus DNA [36] = assay: Binding affinity to calf thymus DNA assessed as reduction in fluorescence intensity at 3 x 10^-5M by fluorescence spectroscopy; assay type: nucleic-acid assay; details: Bos taurus; dose 3.0 10^-5M
Lipoteichoic acid = assay: Displacement of BODIPY-TR-cadaverine from methicillin-resistant Staphylococcus aureus ATCC 33591 lipoteichoic acid assessed as increase in fluorescence intensity; details: dose 0.5-4 µg/ml
Staphylococcus aureus [37] = assay: Antibacterial activity against methicillin-resistant Staphylococcus aureus CGMCC 1.12409 incubated for 18 hrs by two fold serial broth dilution method; assay type: functional
Staphylococcus aureus [38] = assay: Antibacterial activity against Staphylococcus aureus CMCC 26003 incubated for 18 hrs by two fold serial broth dilution method; assay type: functional
Staphylococcus aureus [39] = assay: Antibacterial activity against methicillin-resistant Staphylococcus aureus ATCC 33591 infected in cyclophosphamide treated female KM mouse skin infection model assessed as reduction in bacterial load in abscess administered for 4 days and measured on day 5; assay type: functional, organism-based; details: dose 3.3-13.2 mg/kg, time 5.0 day
Cell membrane [40] = assay: Induction of membrane depolarization in methicillin-resistant Staphylococcus aureus ATCC 33591 assessed as increase in fluorescence intensity at 1 to 4 times MIC by DiSC3(5) staining based assay; assay type: cell membranes; details: time 0-120 min, TDE = time-dependent effect
Staphylococcus aureus [41] = assay: Bactericidal activity against methicillin-resistant Staphylococcus aureus ATCC 33591 assessed as log reduction in viable bacterial count at 8 times MIC measured after 10 hrs by time-kill assay; assay type: functional
[42] = Stability in sheep plasma assessed as increase in MIC measured after 0 to 6 hrs; assay type: ADME, cell-free, Ovis aries; details: time 0-6 hrs
Staphylococcus aureus [43] = assay: Antibacterial activity against methicillin-resistant Staphylococcus aureus clinical isolate M-20 incubated for 18 hrs by two fold serial broth dilution method; assay type: functional
Erythrocyte = assay: Hemolytic activity at sheep Red blood cells at 0.5 to 128 ug/ml; assay type: toxicity, cell-based, Ovis aries; details: dose 0.5-128 µg/ml
Staphylococcus aureus [44] = assay: Antibacterial activity against methicillin-resistant Staphylococcus aureus clinical isolate M-18 incubated for 18 hrs by two fold serial broth dilution method; assay type: functional
Staphylococcus aureus [45] = assay: Antibacterial activity against methicillin-resistant Staphylococcus aureus ATCC 33591 assessed as reduction in LDH activity at 4 ug/ml measured after 8 hrs relative to control; assay type: functional; parameters: scale not given: the % may be the effect or the level left; details: dose 4 µg/ml
Staphylococcus aureus [46] = assay: Antibacterial activity against methicillin-resistant Staphylococcus aureus; assay type: functional
Staphylococcus sp. = assay: Antibacterial activity against Staphylococcus sp. 772 assessed as inhibition of bacterial growth incubated for 24 hrs by microdilution method; assay type: functional

Cc1c2c(cc[n+]1C)c1ccccc1n2CCCCCCCCn1c2ccccc2c2cc[n+](C)c(C)c21.[I-].[I-]
Activity (Cell membrane [1]): Dose-Dependent Effect
MIC (Staphylococcus aureus [2]): 2 µg/mL
MIC (Staphylococcus aureus [3]): 0.5 µg/mL
MIC (Escherichia coli): 8 µg/mL
fold change (FC) (Staphylococcus aureus [4]): 1.25
MIC (Staphylococcus aureus [5]): 8 µg/mL
Activity (Cell membrane [6]): Dose-Dependent Effect
Activity (Staphylococcus aureus [7]): Dose-Dependent Effect
viability at 8 ug/ml [8]: 97.8%
MIC (Staphylococcus aureus [9]): 1 µg/mL
Activity (Staphylococcus aureus [10]): Active
Activity (Calf thymus DNA [11]): Active
hemolysis at 256 ug/ml [12]: 7.71%
MIC (Staphylococcus aureus [13]): 4 µg/mL
log(activity) (Staphylococcus aureus [14]): 1.27
Activity (Staphylococcus aureus [15]): Active
MIC (Staphylococcus aureus [16]): 1 µg/mL
Activity (Staphylococcus aureus [17]): Dose-Dependent Effect
log(activity) (Staphylococcus aureus [18]): 4.06
viability at 0.5 ug/ml [19]: 110%
Activity (Staphylococcus aureus [20]): Dose-Dependent Effect
MIC (Staphylococcus aureus [21]): 1 µg/mL
Activity (Cell membrane [22]): Dose-Dependent Effect
Activity (Cell membrane [23]): Dose-Dependent Effect
Activity (Staphylococcus aureus [24]): Active
log(activity) (Staphylococcus aureus [25]): <3
Activity (Cell membrane [26]): Active
MIC (Staphylococcus aureus [27]): 2 µg/mL
Activity (Staphylococcus aureus [28]): Active
MIC (Staphylococcus aureus [29]): 1 µg/mL
Activity (Staphylococcus aureus [30]): Dose-Dependent Effect
Activity (Staphylococcus aureus [31]): Dose-Dependent Effect
Activity (Staphylococcus aureus [32]): Active
fold change (FC) (Cell membrane [33]): 28
inhibition at 0.5 µg/mL (Staphylococcus aureus [34]): 100%
Activity (Staphylococcus aureus [35]): Dose-Dependent Effect
Activity (Calf thymus DNA [36]): Active
Activity (Lipoteichoic acid): Dose-Dependent Effect
MIC (Staphylococcus aureus [37]): 1 µg/mL
MIC (Staphylococcus aureus [38]): 0.5 µg/mL
Activity (Staphylococcus aureus [39]): Dose-Dependent Effect
Activity (Cell membrane [40]): Tde
log(activity) (Staphylococcus aureus [41]): 3.44
Stability [42]: Stable
MIC (Staphylococcus aureus [43]): 1 µg/mL
Activity (Erythrocyte): Non-Toxic
MIC (Staphylococcus aureus [44]): 2 µg/mL
Activity (Staphylococcus aureus [45]): 87.21%

COc1ccc2c(c1)c1cc[n+](C)cc1n2CCCCCCCCn1c2ccc(OC)cc2c2cc[n+](C)cc21.[I-].[I-]
MIC (Staphylococcus aureus [46]): 2 µg/mL

Cc1nccc2c1[nH]c1ccccc12 [HARMAN]
MIC (Staphylococcus aureus [2]): 128 µg/mL (≈ 702 µM)
MIC (Staphylococcus aureus [3]): 128 µg/mL (≈ 702 µM)
MIC (Escherichia coli): 8 µg/mL (≈ 43.9 µM)
MIC (Staphylococcus aureus [13]): 128 µg/mL (≈ 702 µM)
MIC (Staphylococcus aureus [37]): > 128 µg/mL
MIC (Staphylococcus aureus [38]): 128 µg/mL (≈ 702 µM)
MIC (Staphylococcus sp.): 18 µg/mL (≈ 98.8 µM)
